In patent publication US20240181123A1, “DRUG-ELUTING SUTURE FOR ATTENUATING INFLAMMATION IN WOUNDS” (University of Utah Research Foundation, priority 2022, published 2024):

Assay type: physicochemical
Method: In another variation of the manufacturing process involving hot-melt extrusion, a mixed/combined composition of the polymer material (often in the form of a powder) and the anti-inflammatory agent is raised to a temperature above the glass transition temperature of the polymer material. The combined composition is then subjected to hot-melt extrusion to form the suture. The temperature during the hot-melt extrusion process preferably remains at or below 140° C. We discovered that tacrolimus begins to degrade at temperatures above this limit. By carrying out the hot-melt extrusion at temperatures at or below 140° C., the process allows for the formation of the suture without causing degradation of the tacrolimus or the polymer material.

temperature above which tacrolimus begins to degrade: > 140 °C
Compound: C=CC[C@@H]1/C=C(\C)C[C@H](C)C[C@H](OC)[C@H]2O[C@@](O)(C(=O)C(=O)N3CCCC[C@H]3C(=O)O[C@H](/C(C)=C/[C@@H]3CC[C@@H](O)[C@H](OC)C3)[C@H](C)[C@@H](O)CC1=O)[C@H](C)C[C@@H]2OC [tacrolimus]
